ChEMBL document CHEMBL3396992, “Synthesis and biological evaluation of pyrazolylthiazole carboxylic acids as potent anti-inflammatory-antimicrobial agents” (2015)
Values after ≈ are worked out from the molar mass of the structure shown. Active and inactive are the calls of the source. The calls are words filed in the database; no cut-off is given here.

What was measured:
Saccharomyces cerevisiae [1] = assay: Antimicrobial activity against Saccharomyces cerevisiae MTCC 170 assessed as growth inhibition at 4 mg/ml after 24 hrs by agar well diffusion method; format: functional; settings: for zone of inhibition at 4000 µg/mL: MTCC 170, 24 h, read-out: DIZ
Bacillus subtilis [2] = assay: Antimicrobial activity against Bacillus subtilis MTCC 121 assessed as growth inhibition after 24 hrs by agar well diffusion method; format: functional; settings: MTCC 121, 24 h
Rattus norvegicus [3] = assay: Antiinflammatory activity against carrageenan-induced paw edema male Wistar albino rat at 50 mg/kg, ip administered 30 mins prior to carrageenan-challenge measured after 4 hrs relative to control; format: functional; settings: route intraperitoneal
Staphylococcus aureus [4] = assay: Antimicrobial activity against Staphylococcus aureus MTCC 96 assessed as growth inhibition after 24 hrs by agar well diffusion method; format: functional
Rattus norvegicus [5] = assay: Antiinflammatory activity against carrageenan-induced paw edema male Wistar albino rat assessed as edema volume at 50 mg/kg, ip administered 30 mins prior to carrageenan-challenge measured after 4 hrs (reference value: 1.88 +/- 0.20 mL); format: functional; settings: route intraperitoneal
Escherichia coli = assay: Antimicrobial activity against Escherichia coli MTCC 1652 assessed as growth inhibition at 4 mg/ml after 24 hrs by agar well diffusion method; format: functional, organism-based
Pseudomonas aeruginosa = settings: MTCC 741, 4 mg/ml
Description: Antimicrobial activity against Pseudomonas aeruginosa MTCC 741 assessed as growth inhibition at 4 mg/ml after 24 hrs by agar well diffusion method

Rattus norvegicus [6] = assay: Antiinflammatory activity against carrageenan-induced paw edema male Wistar albino rat assessed as edema volume at 50 mg/kg, po administered 30 mins prior to carrageenan-challenge measured after 1 hr (reference value: 1.11 +/- 0.12 mL); format: functional
Rattus norvegicus [7] = assay: Antiinflammatory activity against carrageenan-induced paw edema male Wistar albino rat at 50 mg/kg, ip administered 30 mins prior to carrageenan-challenge measured after 1 hr relative to control; format: functional; settings: route intraperitoneal
Rattus norvegicus [8] = assay: Antiinflammatory activity against carrageenan-induced paw edema male Wistar albino rat at 50 mg/kg, ip administered 30 mins prior to carrageenan-challenge measured after 3 hrs relative to control; format: functional; settings: route intraperitoneal
Candida albicans [9] = assay: Antimicrobial activity against Candida albicans MTCC 3017 assessed as growth inhibition after 24 hrs by agar well diffusion method; format: functional; settings: MTCC 3017, 24 h
Candida albicans [10] = assay: Antimicrobial activity against Candida albicans MTCC 3017 assessed as growth inhibition at 4 mg/ml after 24 hrs by agar well diffusion method; format: functional; settings: MTCC 3017, 24 h, read-out: DIZ
Rattus norvegicus [11] = assay: Antiinflammatory activity against carrageenan-induced paw edema male Wistar albino rat assessed as edema volume at 50 mg/kg, ip administered 30 mins prior to carrageenan-challenge measured after 2 hrs (reference value: 1.21 +/- 0.16 mL); format: functional; settings: route intraperitoneal
Staphylococcus aureus [12] = assay: Antimicrobial activity against Staphylococcus aureus MTCC 96 assessed as growth inhibition at 4 mg/ml after 24 hrs by agar well diffusion method; format: functional; settings: for zone of inhibition at 4000 µg/mL: MTCC 96, 24 h, read-out: DIZ
Bacillus subtilis [13] = assay: Antimicrobial activity against Bacillus subtilis MTCC 121 assessed as growth inhibition at 4 mg/ml after 24 hrs by agar well diffusion method; format: functional; settings: MTCC 121, 24 h, read-out: DIZ
Rattus norvegicus [14] = assay: Antiinflammatory activity against carrageenan-induced paw edema male Wistar albino rat assessed as edema volume at 50 mg/kg, ip administered 30 mins prior to carrageenan-challenge measured after 3 hrs (reference value: 1.73 +/- 0.09 mL); format: functional; settings: route intraperitoneal
Rattus norvegicus [15] = assay: Antiinflammatory activity against carrageenan-induced paw edema male Wistar albino rat at 50 mg/kg, ip administered 30 mins prior to carrageenan-challenge measured after 2 hrs relative to control; format: functional; settings: route intraperitoneal
Saccharomyces cerevisiae [16] = assay: Antimicrobial activity against Saccharomyces cerevisiae MTCC 170 assessed as growth inhibition after 24 hrs by agar well diffusion method; format: functional

CCOC(=O)c1sc(-c2cn(-c3ccccc3)nc2-c2ccc(Cl)cc2)nc1-c1ccc(OC)cc1
diameter of the inhibition zone (DIZ) (Saccharomyces cerevisiae [1]): inactive
MIC (Bacillus subtilis [2]): 50 µg/mL (≈ 96.9 µM)
Activity (Rattus norvegicus [3]): 88.92%
MIC (Staphylococcus aureus [4]): inactive
Activity (Rattus norvegicus [5]): 0.21 mL
diameter of the inhibition zone (DIZ) (Escherichia coli): inactive
DIZ (Pseudomonas aeruginosa): inactive
Activity (Rattus norvegicus [6]): 0.1 mL
Activity (Rattus norvegicus [7]): 90.99%
Activity (Rattus norvegicus [8]): 85.54%
MIC (Candida albicans [9]): 50 µg/mL (≈ 96.9 µM)
zone of inhibition at 4000 µg/mL (Candida albicans [10]): 15.3 mm
Activity (Rattus norvegicus [11]): 0.35 mL
diameter of the inhibition zone (DIZ) (Staphylococcus aureus [12]): inactive
zone of inhibition at 4000 µg/mL (Bacillus subtilis [13]): 15.3 mm
Activity (Rattus norvegicus [14]): 0.25 mL
Activity (Rattus norvegicus [15]): 71.07%
MIC (Saccharomyces cerevisiae [16]): inactive

COc1ccc(-c2nn(-c3ccccc3)cc2-c2nc(-c3ccc(F)cc3)c(C(=O)O)s2)cc1
zone of inhibition at 4000 µg/mL (Saccharomyces cerevisiae [1]): 15.3 mm
MIC (Bacillus subtilis [2]): 50 µg/mL (≈ 106 µM)
Activity (Rattus norvegicus [3]): 90.42%
MIC (Staphylococcus aureus [4]; MTCC 96, 24 h): 50 µg/mL (≈ 106 µM)
Activity (Rattus norvegicus [5]): 0.18 mL
diameter of the inhibition zone (DIZ) (Escherichia coli): inactive
DIZ (Pseudomonas aeruginosa): inactive
Activity (Rattus norvegicus [6]): 0.19 mL
Activity (Rattus norvegicus [7]): 82.88%
Activity (Rattus norvegicus [8]): 82.08%
MIC (Candida albicans [9]): 50 µg/mL (≈ 106 µM)
zone of inhibition at 4000 µg/mL (Candida albicans [10]): 12 mm
Activity (Rattus norvegicus [11]): 0.22 mL
zone of inhibition at 4000 µg/mL (Staphylococcus aureus [12]): 12 mm
zone of inhibition at 4000 µg/mL (Bacillus subtilis [13]): 12 mm
Activity (Rattus norvegicus [14]): 0.31 mL
Activity (Rattus norvegicus [15]): 81.81%
MIC (Saccharomyces cerevisiae [16]; MTCC 170, 24 h): 50 µg/mL (≈ 106 µM)

CCOC(=O)c1sc(-c2cn(-c3ccccc3)nc2-c2ccc(F)cc2)nc1-c1ccc(OC)cc1
diameter of the inhibition zone (DIZ) (Saccharomyces cerevisiae [1]): inactive
MIC (Bacillus subtilis [2]): 50 µg/mL (≈ 100 µM)
Activity (Rattus norvegicus [3]): 82.97%
MIC (Staphylococcus aureus [4]): inactive
Activity (Rattus norvegicus [5]): 0.32 mL
diameter of the inhibition zone (DIZ) (Escherichia coli): inactive
DIZ (Pseudomonas aeruginosa): inactive
Activity (Rattus norvegicus [6]): 0.22 mL
Activity (Rattus norvegicus [7]): 80.18%
Activity (Rattus norvegicus [8]): 77.45%
MIC (Candida albicans [9]): 50 µg/mL (≈ 100 µM)
zone of inhibition at 4000 µg/mL (Candida albicans [10]): 15.6 mm
Activity (Rattus norvegicus [11]): 0.27 mL
diameter of the inhibition zone (DIZ) (Staphylococcus aureus [12]): inactive
zone of inhibition at 4000 µg/mL (Bacillus subtilis [13]): 13.3 mm
Activity (Rattus norvegicus [14]): 0.39 mL
Activity (Rattus norvegicus [15]): 79.33%
MIC (Saccharomyces cerevisiae [16]): inactive

COc1ccc(-c2nn(-c3ccccc3)cc2-c2nc(-c3ccccc3)c(C(=O)O)s2)cc1
zone of inhibition at 4000 µg/mL (Saccharomyces cerevisiae [1]): 16 mm
MIC (Bacillus subtilis [2]): 25 µg/mL (≈ 55.1 µM)
Activity (Rattus norvegicus [3]): 87.76%
MIC (Staphylococcus aureus [4]; MTCC 96, 24 h): 25 µg/mL (≈ 55.1 µM)
Activity (Rattus norvegicus [5]): 0.23 mL
diameter of the inhibition zone (DIZ) (Escherichia coli): inactive
DIZ (Pseudomonas aeruginosa): inactive
Activity (Rattus norvegicus [6]): 0.2 mL
Activity (Rattus norvegicus [7]): 81.98%
Activity (Rattus norvegicus [8]): 87.86%
MIC (Candida albicans [9]): 50 µg/mL (≈ 110 µM)
zone of inhibition at 4000 µg/mL (Candida albicans [10]): 16.3 mm
Activity (Rattus norvegicus [11]): 0.16 mL
zone of inhibition at 4000 µg/mL (Staphylococcus aureus [12]): 21.6 mm
zone of inhibition at 4000 µg/mL (Bacillus subtilis [13]): 18.6 mm
Activity (Rattus norvegicus [14]): 0.21 mL
Activity (Rattus norvegicus [15]): 86.77%
MIC (Saccharomyces cerevisiae [16]; MTCC 170, 24 h): 50 µg/mL (≈ 110 µM)

CCOC(=O)c1sc(-c2cn(-c3ccccc3)nc2-c2ccc(OC)cc2)nc1-c1ccc(F)cc1
diameter of the inhibition zone (DIZ) (Saccharomyces cerevisiae [1]): inactive
MIC (Bacillus subtilis [2]): 25 µg/mL (≈ 50 µM)
Activity (Rattus norvegicus [3]): 80.31%
MIC (Staphylococcus aureus [4]): inactive
Activity (Rattus norvegicus [5]): 0.37 mL
diameter of the inhibition zone (DIZ) (Escherichia coli): inactive
DIZ (Pseudomonas aeruginosa): inactive
Activity (Rattus norvegicus [6]): 0.18 mL
Activity (Rattus norvegicus [7]): 83.78%
Activity (Rattus norvegicus [8]): 82.08%
MIC (Candida albicans [9]): 12.5 µg/mL (≈ 25 µM)
zone of inhibition at 4000 µg/mL (Candida albicans [10]): 24.6 mm
Activity (Rattus norvegicus [11]): 0.18 mL
diameter of the inhibition zone (DIZ) (Staphylococcus aureus [12]): inactive
zone of inhibition at 4000 µg/mL (Bacillus subtilis [13]): 20.6 mm
Activity (Rattus norvegicus [14]): 0.31 mL
Activity (Rattus norvegicus [15]): 85.12%
MIC (Saccharomyces cerevisiae [16]): inactive

O=C(O)c1sc(-c2cn(-c3ccccc3)nc2-c2ccc(Cl)cc2)nc1-c1ccc(Cl)cc1
zone of inhibition at 4000 µg/mL (Saccharomyces cerevisiae [1]): 24.6 mm
MIC (Bacillus subtilis [2]): 50 µg/mL (≈ 102 µM)
Activity (Rattus norvegicus [3]): 85.1%
MIC (Staphylococcus aureus [4]): inactive
Activity (Rattus norvegicus [5]): 0.28 mL
diameter of the inhibition zone (DIZ) (Escherichia coli): inactive
DIZ (Pseudomonas aeruginosa): inactive
Activity (Rattus norvegicus [6]): 0.26 mL
Activity (Rattus norvegicus [7]): 76.57%
Activity (Rattus norvegicus [8]): 75.14%
MIC (Candida albicans [9]): 12.5 µg/mL (≈ 25.4 µM)
zone of inhibition at 4000 µg/mL (Candida albicans [10]): 23.6 mm
Activity (Rattus norvegicus [11]): 0.23 mL
diameter of the inhibition zone (DIZ) (Staphylococcus aureus [12]): inactive
zone of inhibition at 4000 µg/mL (Bacillus subtilis [13]): 16.6 mm
Activity (Rattus norvegicus [14]): 0.43 mL
Activity (Rattus norvegicus [15]): 80.99%
MIC (Saccharomyces cerevisiae [16]; MTCC 170, 24 h): 12.5 µg/mL (≈ 25.4 µM)

O=C(O)c1sc(-c2cn(-c3ccccc3)nc2-c2ccccc2)nc1-c1ccccc1
zone of inhibition at 4000 µg/mL (Saccharomyces cerevisiae [1]): 23.6 mm
MIC (Bacillus subtilis [2]): 25 µg/mL (≈ 59 µM)
Activity (Rattus norvegicus [3]): 84.04%
MIC (Staphylococcus aureus [4]; MTCC 96, 24 h): 12.5 µg/mL (≈ 29.5 µM)
Activity (Rattus norvegicus [5]): 0.3 mL
diameter of the inhibition zone (DIZ) (Escherichia coli): inactive
DIZ (Pseudomonas aeruginosa): inactive
Activity (Rattus norvegicus [6]): 0.24 mL
Activity (Rattus norvegicus [7]): 87.37%
Activity (Rattus norvegicus [8]): 83.81%
MIC (Candida albicans [9]): 50 µg/mL (≈ 118 µM)
zone of inhibition at 4000 µg/mL (Candida albicans [10]): 17.6 mm
Activity (Rattus norvegicus [11]): 0.39 mL
zone of inhibition at 4000 µg/mL (Staphylococcus aureus [12]): 24.6 mm
zone of inhibition at 4000 µg/mL (Bacillus subtilis [13]): 18.6 mm
Activity (Rattus norvegicus [14]): 0.28 mL
Activity (Rattus norvegicus [15]): 67.76%
MIC (Saccharomyces cerevisiae [16]; MTCC 170, 24 h): 12.5 µg/mL (≈ 29.5 µM)

CCOC(=O)c1sc(-c2cn(-c3ccccc3)nc2-c2ccccc2)nc1-c1ccc(OC)cc1
diameter of the inhibition zone (DIZ) (Saccharomyces cerevisiae [1]): inactive
MIC (Bacillus subtilis [2]): 50 µg/mL (≈ 104 µM)
Activity (Rattus norvegicus [3]): 81.91%
MIC (Staphylococcus aureus [4]): inactive
Activity (Rattus norvegicus [5]): 0.34 mL
diameter of the inhibition zone (DIZ) (Escherichia coli): inactive
DIZ (Pseudomonas aeruginosa): inactive
Activity (Rattus norvegicus [6]): 0.22 mL
Activity (Rattus norvegicus [7]): 80.18%
Activity (Rattus norvegicus [8]): 86.12%
MIC (Candida albicans [9]): 50 µg/mL (≈ 104 µM)
zone of inhibition at 4000 µg/mL (Candida albicans [10]): 16.3 mm
Activity (Rattus norvegicus [11]): 0.29 mL
diameter of the inhibition zone (DIZ) (Staphylococcus aureus [12]): inactive
zone of inhibition at 4000 µg/mL (Bacillus subtilis [13]): 13.6 mm
Activity (Rattus norvegicus [14]): 0.24 mL
Activity (Rattus norvegicus [15]): 76.03%
MIC (Saccharomyces cerevisiae [16]): inactive
